Results as given in patent US10300106B2, “Autophagy-inducing peptide analogs” (Board of Regents, The University of Texas System, priority 2013, dated 2019).
Non-standard residues stand in square brackets, D forms with d. No end group written: not given here.

Test system: autophagy (p62 degradation, LC3-I to LC3-II conversion)
Assay: Biochemical autophagy assays: western blot detection of p62 and of the conversion of LC3-I into LC3-II
Format: cell-based
Details: 10 micromolar; western blot; compared to 10 micromolar Tat-Beclin 1 compound
Protocol: Autophagy can be detected directly, indirectly or inferentially by conventional assays, such as disclosed and/or exemplified herein, including biochemically (by assessing the generation of Atg8-PE or LC3-II or the degradation of p62) or microscopically (e.g. by observing the localization pattern of fluorescently tagged Atg8 or LC3).
To further assess the components of the beclin 1 peptide required for autophagy-inducing activity, a series of shorter peptides were developed. Activity was measured by biochemical autophagy assays including western blot detection of p62 (a protein degraded by autophagy) and western blot detection of the conversion of LC3-I into LC3-II (the lipidated autophagosome-associated form of LC3).

Sequence | LC3-II conversion | p62 degradation
VFNATFEIWHD [Wild-type (wt)] | increased LC3-II conversion | increased p62 degradation

Same assay, conditions: relative to the wild-type (wt) peptide; all peptides carry the 11 amino acid HIV TAT PTD and diglycine linker

Sequence | Activity (autophagy inducing activity)
VFNACFEIWHD (HIV TAT PTD and diglycine linker fused) [Mutant 5, HIV TAT PTD-diglycine fusion peptide] | <wt
VLNATFEIWHD (HIV TAT PTD-diglycine fusion) [Mutant 15, HIV TAT PTD-diglycine fusion peptide] | ~wt
VFNATFEFWHD (HIV TAT PTD and diglycine linker fused) [Mutant 18, HIV TAT PTD-diglycine fusion peptide] | ~wt
VFNATFEIWH (HIV TAT PTD and diglycine linker fused) [Mutant 25, HIV TAT PTD-diglycine fusion peptide] | >wt
VWNATFHIWHD (HIV TAT PTD-diglycine fusion) [Mutant 17, HIV TAT PTD-diglycine fusion peptide] | >>wt
VFNSTFEIWHD ({Tat PTD}-GGVFNSTFEIWHD) [Mutant 4, HIV TAT PTD-diglycine fusion peptide] | <<wt
VFNATFEIWYD (HIV TAT PTD-diglycine fusion) [Mutant 10, HIV TAT PTD-diglycine fusion peptide] | ~wt
FNATFEIWH (HIV TAT PTD and diglycine linker fused) [Mutant 26, HIV TAT PTD-diglycine fusion peptide] | >>wt
VWNATFHIWH (HIV TAT PTD and diglycine linker fused) [Mutant 28, HIV TAT PTD-diglycine fusion peptide] | >>wt
DHWIHFTANWV ([dD][dH][dW][dI][dH][dF][dT][dA][dN][dW][dV]; also: fused to TAT PTD via diglycine linker) [Mutant 30, D-retro-inverso counterpart of Mutant 17, with TAT PTD and diglycine linker] | >>wt
VFNATWEIWHD (HIV TAT PTD and diglycine linker fused) [Mutant 6, HIV TAT PTD-diglycine fusion peptide] | <wt
VFNATFEVWHD (HIV TAT PTD-diglycine fusion) [Mutant 14, HIV TAT PTD-diglycine fusion peptide] | ~wt
WNATFHIWH (HIV TAT PTD and diglycine linker fused) [Mutant 27, HIV TAT PTD-diglycine fusion peptide] | >>wt
VFNATFEIFHD (HIV TAT PTD and diglycine linker fused) [Mutant 9, HIV TAT PTD-diglycine fusion peptide] | ~wt
FNATFEIWHD (HIV TAT PTD and diglycine linker fused) [Mutant 21, HIV TAT PTD-diglycine fusion peptide] | >wt
VFNATFEIWHD [Wild-type (wt)] | wt
VWNATFEIWHD ({Tat PTD}-GGVWNATFEIWHD) [Mutant 2, HIV TAT PTD-diglycine fusion peptide] | >wt
VFDATFEIWHD ({Tat PTD}-GGVFDATFEIWHD) [Mutant 3, HIV TAT PTD-diglycine fusion peptide] | <<wt
VFNATFDIWHD (HIV TAT PTD and diglycine linker fused) [Mutant 7, HIV TAT PTD-diglycine fusion peptide] | ~wt
VFNATFEYWHD (HIV TAT PTD and diglycine linker fused) [Mutant 19, HIV TAT PTD-diglycine fusion peptide] | ~wt
VYNATFEIWHD (HIV TAT PTD-diglycine fusion) [Mutant 13, HIV TAT PTD-diglycine fusion peptide] | <wt
CFNATFEIWHD ({Tat PTD}-GGCFNATFEIWHD) [Mutant 1, HIV TAT PTD-diglycine fusion peptide] | ~wt
VFNATFELWHD (HIV TAT PTD and diglycine linker fused) [Mutant 8, HIV TAT PTD-diglycine fusion peptide] | >wt
VWNATFELWHD (HIV TAT PTD-diglycine fusion) [Mutant 12, HIV TAT PTD-diglycine fusion peptide] | ~wt
WNATFHIWHD (HIV TAT PTD and diglycine linker fused) [Mutant 29, HIV TAT PTD-diglycine fusion peptide] | >>wt
VFNATFEIWHE (HIV TAT PTD-diglycine fusion) [Mutant 11, HIV TAT PTD-diglycine fusion peptide] | ~wt
VFNATFERWHD (HIV TAT PTD and diglycine linker fused) [Mutant 20, HIV TAT PTD-diglycine fusion peptide] | ~wt
VFNATFEMWHD (HIV TAT PTD-diglycine fusion) [Mutant 16, HIV TAT PTD-diglycine fusion peptide] | ~wt
